Results reported in PubChem BioAssay AID248 (DTP/NCI, 2004).
Values joined by “and” are separate entries in the source; they are usually repeats but may differ in a detail not shown here. Identical values can stand only once. Toxic doses and inconclusive results are not listed. Cut-off read from the data, not from the text of the source: active = T/C of 150% or more; inactive = T/C below 125%.

Tested on: L1210 leukemia ip in BDF1 mice, survival T/C
Test: NCI In Vivo Anticancer Drug Screen. Data for tumor model L1210 Leukemia (intraperitoneal) in B6D2F1 (BDF1) mice
Conditions: endpoint: mean survival time, higher = longer survival
Outline: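 Transplanted-tumor mice were given test agent; controls received vehicle only. Survival readings from the two groups were divided (treated over control).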

[1] = dose: 100.0 mg/kg/injection, schedule: Q01DX009 (ip), vehicle: Klucel (hydroxypropylcellulose) (HPC)
[2] = dose: 100.0 mg/kg/injection, schedule: Q04DX003 (ip), vehicle: Klucel (hydroxypropylcellulose) (HPC)
[3] = dose: 200.0 mg/kg/injection, schedule: Q01DX009 (ip), vehicle: Klucel (hydroxypropylcellulose) (HPC)
[4] = dose: 200.0 mg/kg/injection, schedule: Q04DX003 (ip), vehicle: Klucel (hydroxypropylcellulose) (HPC)
[5] = dose: 400.0 mg/kg/injection, schedule: Q01DX009 (ip), vehicle: Klucel (hydroxypropylcellulose) (HPC)
[6] = dose: 400.0 mg/kg/injection, schedule: Q04DX003 (ip), vehicle: Klucel (hydroxypropylcellulose) (HPC)
[7] = dose: 75.0 mg/kg/injection, schedule: Q01DX001 (ip), vehicle: saline
[8] = dose: 100.0 mg/kg/injection, schedule: Q04DX003 (ip), vehicle: saline with Tween-80
[9] = dose: 200.0 mg/kg/injection, schedule: Q04DX003 (ip), vehicle: saline with Tween-80
[10] = dose: 400.0 mg/kg/injection, schedule: Q04DX003 (ip), vehicle: saline with Tween-80
[11] = dose: 100.0 mg/kg/injection, schedule: Q01DX001 (ip), vehicle: saline
[12] = dose: 400.0 mg/kg/injection, schedule: Q01DX001 (ip), vehicle: saline
[13] = dose: 100.0 mg/kg/injection, schedule: Q04DX002 (ip), vehicle: Klucel (hydroxypropylcellulose) (HPC)
[14] = dose: 200.0 mg/kg/injection, schedule: Q04DX002 (ip), vehicle: Klucel (hydroxypropylcellulose) (HPC)
[15] = dose: 400.0 mg/kg/injection, schedule: Q04DX002 (ip), vehicle: Klucel (hydroxypropylcellulose) (HPC)
[16] = dose: 100.0 mg/kg/injection, schedule: Q04DX003 (ip), vehicle: saline
[17] = dose: 100.0 mg/kg/injection, schedule: Q01DX009 (ip), vehicle: saline with Tween-80
[18] = dose: 200.0 mg/kg/injection, schedule: Q01DX009 (ip), vehicle: saline with Tween-80
[19] = dose: 400.0 mg/kg/injection, schedule: Q01DX009 (ip), vehicle: saline with Tween-80
[20] = dose: 200.0 mg/kg/injection, schedule: Q04DX003 (ip), vehicle: saline
[21] = dose: 100.0 mg/kg/injection, schedule: Q01DX001 (ip), vehicle: saline with Tween-80
[22] = dose: 12.5 mg/kg/injection, schedule: Q04DX003 (ip), vehicle: saline with Tween-80

Measured: T/C

O=C(c1ccccc1)c1c2ccccc2c(-c2ccccc2)c2ccccc12
inactive: [1] 101 % of control | [2] 92 % of control | [3] 103 % of control | [4] 89 % of control | [5] 92 % of control | [6] 90 % of control

Cc1ccc(S(=O)(=O)N2CCCC2CO)cc1 (stereo unspecified)
inactive: dose: 50.0 mg/kg/injection, schedule: Q01DX009 (ip), vehicle: Klucel (hydroxypropylcellulose) (HPC) 97 % of control | [1] 101 % of control | [3] 101 % of control

NP(=O)(OCCCOCc1ccccc1)N(CCCl)CCCl (stereo unspecified)
inactive: dose: 125.0 mg/kg/injection, schedule: Q01DX001 (ip), vehicle: saline 103 % of control | dose: 250.0 mg/kg/injection, schedule: Q01DX001 (ip), vehicle: saline 108 % of control | dose: 500.0 mg/kg/injection, schedule: Q01DX001 (ip), vehicle: saline 100 % of control

OCC1CC2CC(O)C1C2 (stereo unspecified)
inactive: [7] 100 % of control and 110 % of control | dose: 150.0 mg/kg/injection, schedule: Q01DX001 (ip), vehicle: saline 108 % of control

O=S1(=O)CCCC1C(O)c1ccccc1 (stereo unspecified)
inactive: [2] 94 % of control and 98 % of control | [4] 105 % of control and 102 % of control | [6] 105 % of control and 94 % of control

Nc1nc(C=O)c(Cc2ccc3ccccc3c2)c(=O)[nH]1
inactive: [8] 100 % of control | [9] 108 % of control | [10] 110 % of control

CCOC(=O)C(O)(O)C(C)C
inactive: [11] 113 % of control | [12] 113 % of control

C1=CCC2CSCC2C1 (stereo unspecified)
inactive: dose: 75.0 mg/kg/injection, schedule: Q01DX009 (ip), vehicle: saline sonified 98 % of control | dose: 150.0 mg/kg/injection, schedule: Q01DX009 (ip), vehicle: saline sonified 98 % of control

O=C1C=C(O)C2C3C=CC(CC3)C12 (stereo unspecified)
inactive: [13] 106 % of control | [14] 106 % of control | [15] 92 % of control

COC(=O)N1C=Cc2ccccc2C1C#N (stereo unspecified)
inactive: [16] 107 % of control

CCN(CC)P1(=O)NCCCO1 (stereo unspecified)
inactive: [17] 87 % of control | [18] 94 % of control | [19] 92 % of control

O=C1CC(c2ccccc2Cl)N(S(=O)(=O)c2ccccc2)N1 (stereo unspecified)
inactive: dose: 100.0 mg/kg/injection, schedule: Q01DX009 (ip), vehicle: saline 112 % of control | [16] 104 % of control | dose: 200.0 mg/kg/injection, schedule: Q01DX009 (ip), vehicle: saline 107 % of control | [20] 102 % of control | dose: 400.0 mg/kg/injection, schedule: Q01DX009 (ip), vehicle: saline 106 % of control | dose: 400.0 mg/kg/injection, schedule: Q04DX003 (ip), vehicle: saline 102 % of control

CNCC1C=CCCC1 (stereo unspecified)
inactive: dose: 100.0 mg/kg/injection, schedule: Q04DX002 (ip), vehicle: saline 93 % of control | dose: 200.0 mg/kg/injection, schedule: Q04DX002 (ip), vehicle: saline 100 % of control

c1ccc(N=NC(c2ccccc2)c2ccccc2)cc1
inactive: dose: 50.0 mg/kg/injection, schedule: Q04DX003 (ip), vehicle: saline 106 % of control | [16] 95 % of control | [20] 106 % of control

CCC[As](=O)(O)c1ccc(Cl)cc1
inactive: dose: 1.56 mg/kg/injection, schedule: Q01DX001 (ip), vehicle: Klucel (hydroxypropylcellulose) (HPC) 100 % of control | dose: 3.13 mg/kg/injection, schedule: Q01DX001 (ip), vehicle: Klucel (hydroxypropylcellulose) (HPC) 91 % of control | dose: 6.25 mg/kg/injection, schedule: Q01DX001 (ip), vehicle: Klucel (hydroxypropylcellulose) (HPC) 98 % of control | dose: 12.5 mg/kg/injection, schedule: Q01DX001 (ip), vehicle: Klucel (hydroxypropylcellulose) (HPC) 109 % of control | dose: 25.0 mg/kg/injection, schedule: Q01DX001 (ip), vehicle: Klucel (hydroxypropylcellulose) (HPC) 92 % of control

COc1cc(/C=C/C(=O)c2ccc3c(c2)OCO3)ccc1OCc1ccccc1
inactive: dose: 100.0 mg/kg/injection, schedule: Q04DX003 (ip), vehicle: water 93 % of control | dose: 200.0 mg/kg/injection, schedule: Q04DX003 (ip), vehicle: water 91 % of control | dose: 400.0 mg/kg/injection, schedule: Q04DX003 (ip), vehicle: water 93 % of control

Cc1nnnn1C12CC3CC(CC(C3)C1)C2
inactive: dose: 18.8 mg/kg/injection, schedule: Q01DX001 (ip), vehicle: saline 110 % of control | dose: 37.5 mg/kg/injection, schedule: Q01DX001 (ip), vehicle: saline 100 % of control | [7] 105 % of control

COC1OC2COC(c3ccccc3)OC2C(O)C1NC(C)=O (stereo unspecified)
inactive: dose: 100.0 mg/kg/injection, schedule: Q01DX001 (ip), vehicle: Klucel (hydroxypropylcellulose) (HPC) 95 % of control | [21] 101 % of control | dose: 200.0 mg/kg/injection, schedule: Q01DX001 (ip), vehicle: Klucel (hydroxypropylcellulose) (HPC) 104 % of control | dose: 200.0 mg/kg/injection, schedule: Q01DX001 (ip), vehicle: saline with Tween-80 97 % of control | dose: 400.0 mg/kg/injection, schedule: Q01DX001 (ip), vehicle: saline with Tween-80 98 % of control

O=C1NC(=O)C(c2cc(Cl)co2)N1 (stereo unspecified)
inactive: [2] 105 % of control | [4] 108 % of control | [6] 101 % of control

O=C1CCCC(=O)c2ccccc21
inactive: dose: 100.0 mg/kg/injection, schedule: Q01DX001 (ip), vehicle: carboxymethylcellulose (CMC) 98 % of control | dose: 200.0 mg/kg/injection, schedule: Q01DX001 (ip), vehicle: carboxymethylcellulose (CMC) 93 % of control | dose: 400.0 mg/kg/injection, schedule: Q01DX001 (ip), vehicle: carboxymethylcellulose (CMC) 102 % of control

CCCCCCCCCCCCC1c2ccccc2-c2ccccc21
inactive: [11] 95 % of control | dose: 200.0 mg/kg/injection, schedule: Q01DX001 (ip), vehicle: saline 98 % of control | [12] 107 % of control

C/C(=N/S(=O)(=O)c1ccc(C)cc1)OCCN(C)C
inactive: dose: 3.0 mg/kg/injection, schedule: Q01DX009 (ip), vehicle: saline with Tween-80 100 % of control | dose: 3.0 mg/kg/injection, schedule: Q04DX003 (ip), vehicle: saline with Tween-80 98 % of control | dose: 6.0 mg/kg/injection, schedule: Q01DX009 (ip), vehicle: saline with Tween-80 95 % of control | dose: 6.0 mg/kg/injection, schedule: Q04DX003 (ip), vehicle: saline with Tween-80 101 % of control | [22] 90 % of control

O=S(=O)(Nc1ccc(Br)cc1)c1ccccc1
inactive: [17] 99 % of control | [8] 105 % of control | [18] 87 % of control | [9] 100 % of control | [19] 95 % of control | [10] 98 % of control

c1ccc(-c2ccc(-c3ccccc3)o2)cc1
inactive: [13] 106 % of control | [14] 95 % of control | [15] 106 % of control

CC(=O)OC1C(C)OC(OC2C=C3CCC4C(CCC5(C)C(c6ccc(=O)oc6)CCC45O)C3(C)CC2)C(OC(C)=O)C1OC(C)=O (stereo unspecified)
inactive: dose: 6.25 mg/kg/injection, schedule: Q01DX009 (ip), vehicle: saline with Tween-80 102 % of control | dose: 12.5 mg/kg/injection, schedule: Q01DX009 (ip), vehicle: saline with Tween-80 100 % of control | [22] 105 % of control | dose: 25.0 mg/kg/injection, schedule: Q01DX009 (ip), vehicle: saline with Tween-80 103 % of control | dose: 25.0 mg/kg/injection, schedule: Q04DX003 (ip), vehicle: saline with Tween-80 105 % of control

O=S(=O)(c1ccc(Nc2nc(Cl)nc(Cl)n2)cc1)N(CCCl)CCCl
inactive: [1] 103 % of control | [3] 104 % of control | [5] 107 % of control

O=C(Nc1ccc(Nc2ccccc2)cc1)Nc1ccccc1F
inactive: [1] 97 % of control | [3] 95 % of control | [5] 97 % of control

O=C(NC(Cc1ccccc1)C(=O)CBr)OCc1ccccc1 (stereo unspecified)
inactive: [21] 103 % of control

Nc1cc(S(N)(=O)=O)ccc1N1CCCCC1
inactive: [8] 95 % of control | [9] 96 % of control | [10] 101 % of control
